Several values for one entry are separate records, joined by “and”; a condition that tells them apart may be missing. Equal entries are not always repeated. Inconclusive results and toxic doses are left out. Rule as the data show it: active = T/C of 150% or more; inactive = T/C below 125%.
Test system: L1210 leukemia ip in BDF1 mice, survival T/C
Test: NCI In Vivo Anticancer Drug Screen. Data for tumor model L1210 Leukemia (intraperitoneal) in B6D2F1 (BDF1) mice
Conditions: endpoint: mean survival time, higher = longer survival
How it was run: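 Tumor cells were implanted, animals were treated, and survival was followed. The result divides the treated measurement by the vehicle-control measurement.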

[1] = dose: 100.0 mg/kg/injection, schedule: Q01DX001 (ip), vehicle: saline
[2] = dose: 100.0 mg/kg/injection, schedule: Q04DX003 (ip), vehicle: saline
[3] = dose: 200.0 mg/kg/injection, schedule: Q01DX001 (ip), vehicle: saline
[4] = dose: 200.0 mg/kg/injection, schedule: Q04DX003 (ip), vehicle: saline
[5] = dose: 400.0 mg/kg/injection, schedule: Q01DX001 (ip), vehicle: saline
[6] = dose: 100.0 mg/kg/injection, schedule: Q04DX003 (ip), vehicle: Klucel (hydroxypropylcellulose) (HPC)
[7] = dose: 200.0 mg/kg/injection, schedule: Q04DX003 (ip), vehicle: Klucel (hydroxypropylcellulose) (HPC)
[8] = dose: 400.0 mg/kg/injection, schedule: Q04DX003 (ip), vehicle: Klucel (hydroxypropylcellulose) (HPC)
[9] = dose: 50.0 mg/kg/injection, schedule: Q01DX009 (ip), vehicle: Klucel (hydroxypropylcellulose) (HPC)
[10] = dose: 100.0 mg/kg/injection, schedule: Q01DX009 (ip), vehicle: Klucel (hydroxypropylcellulose) (HPC)
[11] = dose: 200.0 mg/kg/injection, schedule: Q01DX009 (ip), vehicle: Klucel (hydroxypropylcellulose) (HPC)
[12] = dose: 400.0 mg/kg/injection, schedule: Q01DX009 (ip), vehicle: Klucel (hydroxypropylcellulose) (HPC)
[13] = dose: 100.0 mg/kg/injection, schedule: Q01DX001 (ip), vehicle: other
[14] = dose: 200.0 mg/kg/injection, schedule: Q01DX001 (ip), vehicle: other
[15] = dose: 400.0 mg/kg/injection, schedule: Q01DX001 (ip), vehicle: other
[16] = dose: 50.0 mg/kg/injection, schedule: Q01DX009 (ip), vehicle: saline with Tween-80
[17] = dose: 100.0 mg/kg/injection, schedule: Q01DX009 (ip), vehicle: saline with Tween-80
[18] = dose: 100.0 mg/kg/injection, schedule: Q04DX003 (ip), vehicle: saline with Tween-80
[19] = dose: 200.0 mg/kg/injection, schedule: Q01DX009 (ip), vehicle: saline with Tween-80
[20] = dose: 200.0 mg/kg/injection, schedule: Q04DX003 (ip), vehicle: saline with Tween-80
[21] = dose: 100.0 mg/kg/injection, schedule: Q04DX002 (ip), vehicle: Klucel (hydroxypropylcellulose) (HPC)
[22] = dose: 200.0 mg/kg/injection, schedule: Q04DX002 (ip), vehicle: Klucel (hydroxypropylcellulose) (HPC)
[23] = dose: 400.0 mg/kg/injection, schedule: Q04DX002 (ip), vehicle: Klucel (hydroxypropylcellulose) (HPC)
[24] = dose: 100.0 mg/kg/injection, schedule: Q01DX009 (ip), vehicle: saline
[25] = dose: 400.0 mg/kg/injection, schedule: Q01DX009 (ip), vehicle: saline with Tween-80
[26] = dose: 400.0 mg/kg/injection, schedule: Q04DX003 (ip), vehicle: saline with Tween-80

Measured: T/C

N=c1c(C(=O)O)cccn1O
inactive: dose: 87.5 mg/kg/injection, schedule: Q01DX009 (ip), vehicle: Klucel (hydroxypropylcellulose) (HPC) 105 % of control | dose: 175.0 mg/kg/injection, schedule: Q01DX009 (ip), vehicle: Klucel (hydroxypropylcellulose) (HPC) 94 % of control | dose: 350.0 mg/kg/injection, schedule: Q01DX009 (ip), vehicle: Klucel (hydroxypropylcellulose) (HPC) 95 % of control

NCC(=O)c1ccc(-c2ccccc2)cc1
inactive: [1] 97 % of control | [2] 90 % of control | [3] 92 % of control | [4] 98 % of control | [5] 97 % of control

CN(C)CCN1C(=O)c2ccccc2C(C(C)(C)[N+](=O)[O-])c2ccccc21 (stereo not drawn)
inactive: [6] 102 % of control | [7] 98 % of control | [8] 93 % of control

CC1SCC(NC(=O)NCCCl)CS1 (stereo not drawn)
inactive: dose: 100.0 mg/kg/injection, schedule: Q04DX002 (ip), vehicle: gum acacia 103 % of control | dose: 200.0 mg/kg/injection, schedule: Q04DX002 (ip), vehicle: gum acacia 100 % of control | dose: 400.0 mg/kg/injection, schedule: Q04DX002 (ip), vehicle: gum acacia 100 % of control

O=S1(=O)CC(N2CCCCC2)C1CN1CCCCC1 (stereo not drawn)
inactive: dose: 75.0 mg/kg/injection, schedule: Q01DX001 (ip), vehicle: saline 97 % of control | dose: 150.0 mg/kg/injection, schedule: Q01DX001 (ip), vehicle: saline 89 % of control

CCOC(=O)N1CCC2C(CC3CC2C3(C)C)N1C(=O)OCC (stereo not drawn)
inactive: [9] 103 % of control | [10] 101 % of control | [6] 97 % of control | [11] 101 % of control | [7] 101 % of control | [8] 99 % of control

c1cncc(SC23CC4CC(CC(C4)C2)C3)c1
inactive: [10] 106 % of control | [11] 93 % of control | [12] 106 % of control

NOCc1ccsn1
inactive: [13] 105 % of control | dose: 100.0 mg/kg/injection, schedule: Q01DX009 (ip), vehicle: sodium bicarbonate 96 % of control | dose: 100.0 mg/kg/injection, schedule: Q04DX003 (ip), vehicle: other 102 % of control | [14] 111 % of control | dose: 200.0 mg/kg/injection, schedule: Q01DX009 (ip), vehicle: sodium bicarbonate 98 % of control | dose: 200.0 mg/kg/injection, schedule: Q04DX003 (ip), vehicle: other 95 % of control | [15] 94 % of control

Clc1ncnc2c1nnn2/N=C/c1ccccc1
inactive: dose: 15.0 mg/kg/injection, schedule: Q01DX Z (ip), vehicle: carboxymethylcellulose (CMC) 95 % of control | dose: 20.0 mg/kg/injection, schedule: Q01DX Z (ip), vehicle: carboxymethylcellulose (CMC) 91 % of control

Nc1c(Cl)nc(Cl)nc1C(F)(F)F
inactive: dose: 29.0 mg/kg/injection, schedule: Q01DX Z (ip), vehicle: methylcellulose (MC) 92 % of control | dose: 44.0 mg/kg/injection, schedule: Q01DX Z (ip), vehicle: methylcellulose (MC) 95 % of control

O=C(CCCC(=O)N/N=C/c1ccc(Cl)c(Cl)c1)N/N=C\c1ccc(Cl)c(Cl)c1
inactive: dose: 50.0 mg/kg/injection, schedule: Q01DX001 (ip), vehicle: saline 116 % of control | [1] 110 % of control | [3] 118 % of control | [5] 100 % of control

O=C(O)/C=C\C(=O)Nc1nc(NC(=O)/C=C/C(=O)O)cc(=O)[nH]1
inactive: [1] 97 % of control | [3] 100 % of control | [5] 103 % of control

COc1ccc(C(O)SP(=S)(OC)c2ccc(OC)cc2)cc1 (stereo not drawn)
inactive: [16] 100 % of control | [17] 100 % of control | [18] 92 % of control | [19] 95 % of control | [20] 88 % of control

C=CCOCCC#N
inactive: dose: 25.0 mg/kg/injection, schedule: Q01DX009 (ip), vehicle: saline with Tween-80 95 % of control | [16] 97 % of control | [17] 100 % of control

O=C(c1ccccc1)C(Br)c1ccc([N+](=O)[O-])cc1 (stereo not drawn)
inactive: [10] 99 % of control | [6] 105 % of control | [11] 105 % of control | [7] 108 % of control | [12] 95 % of control | [8] 103 % of control

CC1CCCC(C)C1O (stereo not drawn)
inactive: [1] 103 % of control | [3] 101 % of control | [5] 103 % of control

Cc1ccc2c(CCCC(=O)O)c(C)c(=O)oc2c1
inactive: dose: 100.0 mg/kg/injection, schedule: Q01DX001 (ip), vehicle: Klucel (hydroxypropylcellulose) (HPC) 98 % of control | [6] 103 % of control | dose: 200.0 mg/kg/injection, schedule: Q01DX001 (ip), vehicle: Klucel (hydroxypropylcellulose) (HPC) 98 % of control | [7] 96 % of control | dose: 400.0 mg/kg/injection, schedule: Q01DX001 (ip), vehicle: Klucel (hydroxypropylcellulose) (HPC) 100 % of control | [8] 88 % of control

CC(=O)Oc1cc(C)c2c(c1C)C1OC(=O)C(C)C1CC2 (stereo not drawn)
inactive: [13] 98 % of control | [14] 98 % of control | [15] 97 % of control

COC(=O)C1=COC(C)C2CN3CCc4c([nH]c5ccccc45)C3CC12 (stereo not drawn)
inactive: dose: 25.0 mg/kg/injection, schedule: Q04DX003 (ip), vehicle: Klucel (hydroxypropylcellulose) (HPC) 96 % of control | dose: 50.0 mg/kg/injection, schedule: Q04DX003 (ip), vehicle: Klucel (hydroxypropylcellulose) (HPC) 98 % of control | [21] 98 % of control and 95 % of control | [6] 98 % of control | [22] 91 % of control and 102 % of control | [7] 95 % of control | [23] 87 % of control and 106 % of control | [8] 100 % of control

NC(N)=NC(N)=Nc1ccc(N=C(N)N=C(N)N)cc1
inactive: [13] 104 % of control

CC(=O)CC(=O)NCc1cccnc1
inactive: dose: 50.0 mg/kg/injection, schedule: Q04DX003 (ip), vehicle: saline 106 % of control | [24] 93 % of control | [2] 97 % of control | dose: 200.0 mg/kg/injection, schedule: Q01DX009 (ip), vehicle: saline 104 % of control | [4] 94 % of control and 100 % of control | dose: 400.0 mg/kg/injection, schedule: Q01DX009 (ip), vehicle: saline 98 % of control | dose: 400.0 mg/kg/injection, schedule: Q04DX003 (ip), vehicle: saline 96 % of control

CC(=O)NCc1ccccc1
inactive: [17] 97 % of control | [6] 95 % of control | [19] 92 % of control | [7] 100 % of control | [25] 100 % of control | [8] 100 % of control

CCCCCCCCC1SC1CCCCCCCC(=O)N1CCCN(C(=O)CCCCCCCC2SC2CCCCCCCC)C1 (stereo not drawn)
inactive: [18] 92 % of control | [20] 95 % of control | [26] 97 % of control

Cc1c(F)cccc1NCC(=O)NN
inactive: [21] 101 % of control | [22] 115 % of control

Cc1ccc(C(=O)N/N=C/c2ccc3ccccc3c2)cc1
inactive: [21] 95 % of control | [22] 103 % of control | [23] 95 % of control

N#Cc1ccc(C#N)cc1
inactive: [17] 97 % of control | [18] 92 % of control and 95 % of control | [19] 104 % of control | [20] 106 % of control and 86 % of control | [25] 115 % of control | [26] 100 % of control and 104 % of control

CC(C)(C)OOC(=O)c1ccccc1
inactive: dose: 25.0 mg/kg/injection, schedule: Q01DX009 (ip), vehicle: Klucel (hydroxypropylcellulose) (HPC) 96 % of control | dose: 50.0 mg/kg/injection, schedule: Q01DX001 (ip), vehicle: other 90 % of control | [9] 97 % of control | dose: 75.0 mg/kg/injection, schedule: Q01DX009 (ip), vehicle: Klucel (hydroxypropylcellulose) (HPC) 97 % of control and 101 % of control | [13] 100 % of control | [6] 107 % of control | [14] 102 % of control | [7] 115 % of control | [15] 94 % of control | [8] 96 % of control

CC(C)OC(=S)S
inactive: dose: 25.0 mg/kg/injection, schedule: Q01DX009 (ip), vehicle: saline 100 % of control | dose: 50.0 mg/kg/injection, schedule: Q01DX009 (ip), vehicle: saline 94 % of control | [24] 93 % of control
